Data as given in patent US20150023877A1, “METHODS OF PARKINSONS DISEASE DIAGNOSIS AND MONITORING TREATMENT” (The Board of Trustees of the Leland Stanford Junior …, priority 2013, published 2015).
Where “and” joins values, the source holds several entries; their conditions need not be identical. Identical values can stand only once. Like-named read-outs stand apart in the source and are kept apart here. Each block holds one molecule with its values, some of them ahead of it.

Legend:
[1] = system: implantation site (striatum); details: cited from earlier work
[2] = system: pRPE cells; assay: Melanin quantification analysis in pRPE cells; format: cell-based, porcine; details: 2 mM L-tyrosine pre-treatment; from 14.34±0.48 untreated
Method: In vitro measurement of melanin content was performed for pRPE and ARPE-19 cells in parallel with the ^18F-P3BZA cell uptake assay according to methods reported previously with slight modifications^35. The cells were harvested after pretreatment with or without 2 mM L-tyrosine for 24 h and washed with PBS, then they were incubated overnight in 500 μL of 1 N NaOH at room temperature. The solution was pipetted repeatedly to homogenize the extracts. The concentration of total protein was determined using a microBCA protein assay kit (Pierce Biotechnology) and then the concentration of samples was adjusted to 0.4 μg/μL. Extracts (100 μL) were added into 96-well plates in triplicate. The relative melanin content of samples was determined by measuring their absorbance at 405 nm using a plate reader (TECAN, Research Triangle Park, N.C.). Results were expressed as absorbance of 405 nm per mg protein (A 405 nm/mg protein).

[3] = system: pRPE cells; assay: In vitro cell uptake of ^18F-P3BZA in pRPE cells; format: cell-based; details: for uptake of ^18F-P3BZA in pRPE cells: without L-tyrosine
Method: (§1) pRPE (generation 3, 5×10^5) or control ARPE-19 cells were plated in a 12-well plate pretreated with or without L-tyrosine (2 mM) for 24 h. They were incubated with 74 kBq (2 μCi)/well of ^18F-P3BZA at 37° C. for 15, 30, 60, and 120 minute. The cells were washed three times with chilled PBS and lysed with 500 μL of 0.1 M NaOH. The cell lysates were then collected and the radioactivity of the lysates was measured with a γ counter (Perkin-Elmer, MA, USA). The cell uptake was expressed as the percentage of total applied radioactivity. All experiments were performed with triplicate samples. Similarly, uptake of ^18F-P3BZA at 30 minute incubation was determined in pRPE cells at different passages (pRPE-P3, pRPE-P5 and pRPE-P8) and control ARPE19 cells, with or without L-tyrosine pretreatment.

[4] = system: ARPE-19 cells; assay: In vitro cell uptake of ^18F-P3BZA in control ARPE-19 cells; format: cell-based, human
Method: as §1

[5] = Dynamic PET imaging in normal rat brain; format: in vivo
Method: (§2) Small animal PET/CT imaging was performed on a Siemens Inveon small-animal multimodality PET/CT system (Preclinical Solutions; Siemens Healthcare Molecular Imaging, Knoxville, Tenn.). For each rat, ^18F-P3BZA (7.4 MBq, 200 μCi) was administrated through tail vein.
To assess the in vivo kinetics of ^18F-P3BZA in normal rat brain, dynamic PET imaging (10×1 minute, 10×2 minute, 2×5 minute, 3×10 minute; total of 25 frames) was initiated immediately after administration of the probe and terminated 70 minute later on normal rats (n=4).
CT scan (632 slices at 206 μm) was performed immediately after PET imaging for both photon attenuation correction and image co-registration with PET image data for anatomical information. PET Images were reconstructed with a 2-dimensional ordered-subsets expectation maximization algorithm (OSEM 2D). ROIs were drawn in bilateral striatum using the Inveon Research Workspace software. The average radioactivity concentration in the ROIs was obtained from the mean pixel values within the ROIs volume. […] The results were then divided by the injected dose to obtain an image ROI-derived % ID/g, and the TAC was then calculated and obtained.

[6] = system: gelatin microcarrier-bound pRPE cells (pRPE-GMs); assay: Static PET/CT of intrastriatal implanted pRPE-GMs, 2 days after implantation; format: in vivo, rat
Method: (§3) Female Wistar rats (Charles Rivers Laboratory, Wilmington, Mass., USA) weighing 176-200 g were used in this study. All animal work was conducted in accordance with the Administrative Panel on Laboratory Animal Care at Stanford University. The implantation procedure was performed following the surgical procedures described in a previous report^36. Animals were anesthetized using isofluorane and were implanted at left striatum with RPE-GMs using the following (flat-skull) coordinates: anterior posterior (AP) −0.4; medial lateral (ML) ±3.5; dorsal ventral (DV) −5.0. The control GMs-alone were implanted on the contralateral side of the striatum and performed using the same procedure. Before the implantation procedure, solutions contained RPE cells (melanotic pRPE or amelanotic ARPE-19, 12,000˜15,000 cells in 10 μL) were drawn into a sterile 50 μL Hamilton syringe (Hamilton Company, Reno, Nev.).
(§4) Small animal PET/CT imaging was performed on a Siemens Inveon small-animal multimodality PET/CT system (Preclinical Solutions; Siemens Healthcare Molecular Imaging, Knoxville, Tenn.). For each rat, ^18F-P3BZA (7.4 MBq, 200 μCi) was administrated through tail vein. […]

[7] = system: gelatin microcarrier-bound ARPE-19 cells (ARPE-19-GMs); assay: Static PET/CT of intrastriatal implanted ARPE-19-GMs, 2 days after implantation; format: in vivo, rat
Method: as §3, §4

[8] = system: pRPE-GMs; assay: Longitudinal PET/CT after implantation of pRPE-GMs; format: in vivo, rat
Method: as §2
To evaluate the potential of ^18F-P3BZA for monitoring the survival and function of RPE cells implanted, longitudinal PET/CT scans were acquired at day 2, 9 and 16 after cell implantation of pRPE-GMs in the left and GMs as control in right striatum in normal rats (n=12). PET/CT imaging started at 1 h after tail vein injection of ^18F-P3BZA Immediately after PET/CT scan at each time point (day 2, 9 and 16), four rats were sacrificed and the brain slices were prepared for immunohistochemistry and Fontana-Masson staining.

[9] = system: gelatin microcarrier-bound pRPE cells; assay: Ex vivo autoradiography of rat brain sections; format: in vivo; details: after static PET/CT
Excerpt: The sacrificed rat brains were removed and embedded in optimum cutting temperature (O.C.T.) compound (Tissue-Tek, Sakura, USA). Subsequently, thick axial blocks (12 μm) were cut using a cryostat microtome HM500 (Microm, HM 500 M, Heidelberg, Germany). The sections were mounted on microscope slides (Fisherbrand Superfrost Plus microscope slides, Fisherbrand Superfrost Plus Microscope Slides, Vernon Hills, Ill., USA). The representative coronal sections through the striatum (including visible injection sites) were used for autoradiography immediately or preserved in −80° C. for other postmortem analysis.
After static PET/CT imaging, frozen brain sections were prepared immediately for autoradiography. The sections were air-dried for 10 minute, and then exposed to a radioactivity sensitive storage phosphor screen (Perkin-Elmer, USA) for 24 h at 4° C. The imaging plates were analyzed using a Typhoon 9410 variable mode imager (Amersham Biosciences, Salt Lake City, Utah, USA), and the image data were visualized and processed by Image J (image processing and analysis software in Java).

[10] = system: MCF-7-TYR; details: cited from earlier work
[11] = system: B16F10; details: cited from earlier work
[12] = system: MCF-7 cells; details: cited from earlier work
[13] = after implantation of the RPE cells
[14] = before implantation of the RPE cells

Compound: N[C@@H](Cc1cc(O)c(O)cc1[18F])C(=O)O [^18F-fluoro-L-DOPA]
- implantation site (striatum) to cortex uptake ratio [1, 13]: 1.48±0.07
- implantation site (striatum) to cortex uptake ratio [1, 14]: 1.35±0.10

Compound: N[C@@H](Cc1ccc(O)cc1)C(=O)O [L-tyrosine]
- melanin content in pRPE cells (P3) [2]: 21.34±1.73 A 405 per mg protein

- uptake in rat brain ([5]; 2 min after injection (peak)): 7.61±0.30 % ID/g
- uptake in rat brain ([5]; 28 min after injection): 3.54±0.21 % ID/g
- uptake in rat brain ([5]; 60 min after injection): 1.04±0.37 % ID/g
Compound: CCN(CC)CCNC(=O)c1ccc([18F])cn1 [^18F-P3BZA, N-(2-(diethylamino)ethyl)-^18F-5-fluoropicolinamide]
- uptake of ^18F-P3BZA in L-tyrosine treated pRPE cells ([3]; 2 mM L-tyrosine pre-treatment, 30 minute incubation): 39.07±1.65%
- uptake of ^18F-P3BZA in pRPE cells ([3]; 60 minutes incubation): 9.09%±0.31 % of applied activity
- uptake of ^18F-P3BZA in pRPE cells ([3]; 120 minutes incubation): 8.61%±0.47 % of applied activity
- fold uptake in passage 3 pRPE cells vs control amelanotic ARPE-19 cells ([3]; in vitro): 9 fold
- increase in uptake in pRPE cells after tyrosine treatment vs nontreatment groups ([3]; multiple time points, FIG. 2A): three- to fourfold higher
- uptake of ^18F-P3BZA in pRPE cells ([3]; pRPE passage 3, 30 minutes incubation): 10.72±0.38 % of applied activity and 10.72%±0.38 % of applied activity and 10.71%±0.38 % of applied activity
- increase of uptake after tyrosine treatment ([3]; pRPE-P3): 48.8%
- decreasing rate of cell uptake per passage ([3]; pRPE-P3, P5, P8): −1.45 % of applied activity per passage
- increase of uptake after tyrosine treatment ([3]; pRPE-P5): 37.8%
- increase of uptake after tyrosine treatment ([3]; pRPE-P8): 31.9%
- uptake of ^18F-P3BZA in pRPE-P5 cells ([3]; passage 5, 30 minute incubation): 6.25%±0.59 % of applied activity
- uptake of ^18F-P3BZA in pRPE-P8 cells ([3]; passage 8, 30 minute incubation): 3.29%±0.15 % of applied activity
- uptake in control ARPE-19 cells at each time point ([4]; 15, 30, 60, 120 minutes): remained low
- uptake of ^18F-P3BZA in control ARPE-19 cells ([4]; 30 minute incubation): 1.31%±0.15 % of applied activity
- uptake in ARPE-19 cells before and after tyrosine treatment ([4]; with vs without L-tyrosine): no difference
- blood-brain barrier passage ([5]; PET images, normal rat): could rapidly cross the blood-brain barrier
- pRPE-GMs to adjacent normal striatum uptake ratio [6]: 3.19±0.53
- pRPE-GMs to control gelatin microcarriers uptake ratio [6]: 3.05±0.57
- ARPE-19-GMs to gelatin microcarriers uptake ratio [7]: 1.21±0.36
- uptake in pRPE-GMs ([8]; 2 days post-implantation): 3.39±0.18 % ID/g
- uptake in pRPE-GMs ([8]; 9 days post-implantation): 2.49±0.41 % ID/g
- uptake in pRPE-GMs ([8]; 16 days post-implantation): 1.20±0.13 % ID/g
- autoradiography signal of pRPE-GMs transplant site vs ARPE-19-GMs or GMs alone sites [9]: significantly higher
- cell uptake ([10]; 0.5 h incubation): 5.57±0.31%
- cell uptake ([10]; 1 h incubation): 7.14±0.18%
- cell uptake ([11]; 0.5 h incubation): 6.85±0.08%
- cell uptake ([11]; 1 h incubation): 8.55±0.24%
- cell uptake ([12]; 0.5 h incubation): 0.25±0.05%
- cell uptake ([12]; 1 h incubation): 0.32±0.07%

Compound: CCN1CCC[C@H]1CNC(=O)c1c(O)c(Cl)cc(Cl)c1O[11CH3] (racemic) [^11C-raclopride]
- implantation site (striatum) to cortex uptake ratio [1, 13]: 2.44±0.67
- implantation site (striatum) to cortex uptake ratio [1, 14]: 2.41±0.74
